Where a SMILES comes first, the peptide text is derived from it. Where no end group is shown, it is not given here. [ ]: non-standard residue; d: D form.
Key:
[1] = test system: MRSA (ATCC 12493) biofilm; type: cell-based, methicillin-resistant Staphylococcus aureus; conditions: ATCC 12493, 24 h
Procedure: To test the anti-biofilm ability of PSTO2 and its analogues, three types of microorganisms (S. aureus ATCC® 6538, E. coli ATCC® 8739, and MRSA NCTC® 12493) were chosen. Tryptic soy broth (TSB) and Lysogeny broth (LB) were used to culture microorganisms. The peptide was dissolved in an autoclaved PBS solution and diluted into concentrations ranging from 51,200 µM to 100 µM. One µL of peptide solution of each concentration was added into a 96-well plate with 100 µL bacterium at 5 × 10^5 CFU/mL. The plate was incubated at 37 °C for 24 h, with shaking at 200 rpm. After overnight incubation, the planktonic bacteria were washed up. Then, 100 µL of methanol was used to fix the biofilms onto the bottom, and 100 µL of 0.1% crystal violet solution (Sigma-Aldrich, Gillingham, UK) was added to each well to stain the biofilms. After drying, 160 µL of acetic acid (30% in deionised water, Sigma-Aldrich, UK) was added to each well to dissolve the shaded parts. The absorbance was detected with the Synergy HT plate reader at λ = 595 nm.
For the MBEC assay, 100 µL of the bacterium of 5 × 10^5 CFU/mL was transferred into an empty 96-well plate, and the plate was incubated at 37 °C for 24 h to obtain the biofilms primarily. Then, the peptide solution from 512 µM to 1 µM was transferred into a corresponding well, followed by 24 h incubation at 37 °C, with shaking at 200 rpm. After this, the plate was handled using the identical method to the plate in the MBIC assay, and the absorbance of each well was detected with the Synergy HT plate reader at λ = 595 nm. The minimum concentration at which the peptide can eradicate the existing biofilm was recorded as the MBEC value.

[2] = test system: K. pneumonia (ATCC 43816); type: cell-based, Klebsiella pneumonia; conditions: ATCC 43816, 24 h
Text: (§1) Seven microorganism strains were used to preliminarily evaluate the antimicrobial activity of PSTO2 and its analogues, including Staphylococcus aureus (S. aureus) (ATCC® 6538), methicillin-resistant Staphylococcus aureus (MRSA) (NCTC® 12493), Enterococcus faecalis (E. faecalis) (NCTC® 12697), E. coli (ATCC® 8739), Klebsiella pneumonia (K. pneumonia) (ATCC® 43816), Pseudomonas aeruginosa (P. aeruginosa) (ATCC® CRM 9027), Acinetobacter baumanni (A. baumanni) (BAA® 747), and Candida albicans (C. albicans) (ATCC® 10231). In this study, the strains were cultured in Mueller–Hinton broth (MHB), nutrient broth (NB), and yeast–peptone–dextrose broth (YPD-B) correspondingly at 37 °C, with shaking at 120 rpm. Each peptide was dissolved from 128 μM to 1 μM and mixed with the bacterium at 5 × 10^5 CFU/mL. In this process, bacteria with culture medium were used as the growth control group; PBS was set up as the vehicle control group; sterile culture medium was used as the blank control group; and Norfloxacin at a concentration of 2 mg/mL and amphotericin B at a concentration of 1 mg/mL were set up as the positive control group for bacteria and fungi, respectively.
(§2) After being incubated for 24 h, a Synergy HT plate reader (Bio-Tek, Shoreline, WA, USA) was used to detect the absorbance of each well in the 96-well plate at λ = 550 nm. The concentration at which no visible turbidity could be recorded was the MIC value. Beginning from the MIC value, 10 µL of solution in each clear well was dropped on the sterile agar plates. The plate was checked the next day for colony formation, and the lowest concentration at which no colony growing was recorded as an MBC value.

C. albicans = type: cell-based, Candida albicans; conditions: 24 h
Text: as §1, §2

MCF-7 = type: cell-based, human; conditions: 24 h
Procedure: (§3) The percentage of cancer cell survival after being treated with peptides was assessed with 3-(4,5-dimethylthiazol-2-yl-)-2,5-diphenyltetrazolium bromide (MTT). The principle is the reduction process of the yellow tetrazolium to DMSO-soluble formazan crystals caused by the metabolic capability of living cells. All the cancerous and normal cells were obtained from the American Type Culture Collection (Rockville, VA, USA). Human lung cancer NCI-H838 and NCI-H460 were cultured in Roswell Park Memorial Institute (RPMI)-1640 medium (Gibco, Paisley, UK) and mixed with 10% (v/v) fetal bovine serum (FBS) (Gibco, Campinas, Brazil) and 1% penicillin–streptomycin (Gibco, Grand Island, NY, USA) 89/10/1 v/v/v). U251MG and MCF-7 were cultured in Dulbecco’s Modified Eagle medium (DMEM) (Gibco, Paisley, UK) and mixed with 10% FBS and 1% penicillin–streptomycin. HCT 116 was cultured in McCoy’s 5A (modified) medium (Gibco, Paisley, UK) and mixed with 10% FBS and 1% penicillin–streptomycin. MRC-5 and HaCat were cultured in Minimum Essential Medium (MEM) (Gibco, Paisley, UK) and mixed with 10% FBS and 1% penicillin–streptomycin. Cells were cultured and seeded in a 96-well plate at a density of 8000 cells/well with the corresponding medium and incubated for 24 h at 37 °C with 5% CO2. After 24 h of incubation, the cells were starved with a serum-free medium for 4 h at 37 °C. Then, the cells were incubated with different concentrations of peptide solution in a serum-free medium from 1 nM to 100 µM at 37 °C for 24 h. Meanwhile, triton X-100 (0.1%) (Sigma-Aldrich, St. Louis, MO, USA) and PBS were chosen as positive and negative controls. After 10 µL of MTT (5 mg/mL) was added to each well away from light and incubated at 37 °C for 2 h, the formazan generated by mitochondria was dissolved with DMSO. The absorbance was detected at a wavelength of 570 nm by a Synergy HT plate reader (Bio-Tek, Shoreline, WA, USA).

NCI-H460 = type: cell-based, human; conditions: 24 h
Procedure: as §3

NCI-H838 = type: cell-based, human; conditions: 24 h
Procedure: as §3

U251MG = type: cell-based, human; conditions: 24 h
Procedure: as §3

S. aureus (ATCC 6538) = type: cell-based, Staphylococcus aureus; conditions: ATCC 6538, 24 h
Text: as §1, §2

[3] = test system: P. aeruginosa (ATCC 9027); type: cell-based, Pseudomonas aeruginosa; conditions: ATCC 9027, 24 h
Text: as §1, §2

Compound | MBEC [1] | MBIC [1] | MBC [2] | MIC [2] | MBC (C. albicans) | MIC (C. albicans) | IC50 (MCF-7) | IC50 (NCI-H460) | IC50 (NCI-H838) | IC50 (U251MG) | MBC (S. aureus (ATCC 6538)) | MBC [3] | MIC [3] | MIC (S. aureus (ATCC 6538))
CC[C@H](C)[C@H](NC(=O)[C@H](C)NC(=O)[C@@H](CCCCN)NC(=O)[C@@H]1CCCN1C(=O)[C@@H](NC(=O)[C@H](CC(C)C)NC(=O)[C@H](CO)NC(=O)[C@H](CC(C)C)NC(=O)[C@@H](N)Cc1ccccc1)[C@@H](C)CC)C(=O)N[C@@H](CCCCN)C(=O)N[C@@H](C)C(=O)N[C@H](C(=O)N[C@@H](CCCCN)C(=O)N[C@@H](C)C(=O)N[C@@H](CC(C)C)C(=O)N[C@@H](C)C(=O)N[C@@H](CCCCN)C(=O)N[C@H](CCCCN)C(=O)N[C@@H](CC(C)C)C(N)=O)C(C)C [SR2D10] (H-FLSLIP[dK]AIKAVKALAK[dK]L-NH2) | 32 µM | 16 µM | 4 µM | 4 µM | 128 µM | 64 µM | 26.4 µM | 7.7 µM | 9.49 µM | 16.1 µM | 1/1 μM | 32 µM | 32 µM | –
FLSLIPKAIKAVSALAKKL-NH2 [SR] | 16 µM | – | 2 µM | 2 µM | 128 µM | 32 µM | 6.05 µM | 3.07 µM | 2.88 µM | 9.65 µM | 2 µM | 32 µM | – | 2 µM
FLSLIPKAIKAVKALAKKL-NH2 [SR2] | 16 µM | – | 2 µM | 2 µM | 64 µM | 32 µM | 7.83 µM | 5.92 µM | 3.13 µM | 6.72 µM | 2 µM | 32 µM | – | 2 µM
CC[C@H](C)[C@H](NC(=O)[C@H](C)NC(=O)[C@@H](CCCCN)NC(=O)[C@@H]1CCCN1C(=O)[C@@H](NC(=O)[C@H](CC(C)C)NC(=O)[C@H](CO)NC(=O)[C@H](CC(C)C)NC(=O)[C@@H](N)Cc1ccccc1)[C@@H](C)CC)C(=O)N[C@@H](CCCCN)C(=O)N[C@@H](C)C(=O)N[C@H](C(=O)N[C@@H](CO)C(=O)N[C@@H](C)C(=O)N[C@@H](CC(C)C)C(=O)N[C@@H](C)C(=O)N[C@@H](CCCCN)C(=O)N[C@@H](CCCCN)C(=O)N[C@@H](CC(C)C)C(N)=O)C(C)C [SRD7] (H-FLSLIP[dK]AIKAVSALAKKL-NH2) | 16 µM | 4 µM | – | – | 64 µM | 32 µM | 15.2 µM | 2.31 µM | 3.32 µM | 13.9 µM | 1/1 μM | 16 µM | 16 µM | –

Reference: publication PMC11360180, “Enhancement of Antimicrobial Function by L/D-Lysine Substitution on a Novel Broad-Spectrum Antimicrobial Peptide, Phylloseptin-TO2: A Structure-Related Activity Research Study” (Pharmaceutics, 2024)
